Laboratory results taken from ChEMBL document CHEMBL1157448, “Antimycotic activity of 4-thioisosteres of flavonoids towards yeast and yeast-like microorganisms” (2008).

How the values were obtained:
Type in all cases: functional
Papiliotrema laurentii [1] = assay: Antimycotic activity against Cryptococcus laurentii DBVPG 4272 by agar diffusion disk bioassay
Papiliotrema laurentii [2] = assay: Antimycotic activity against Cryptococcus laurentii DBVPG 6265 by agar diffusion disk bioassay
Candida albicans [3] = assay: Antimycotic activity against Candida albicans DBVPG 6157 by agar diffusion disk bioassay
Saccharomyces cerevisiae [4] = assay: Antimycotic activity against Saccharomyces cerevisiae DBVPG 6500 by agar diffusion disk bioassay
Yarrowia lipolytica = assay: Antimycotic activity against Yarrowia lipolytica DBVPG 6053 by agar diffusion disk bioassay
Cryptococcus neoformans [5] = assay: Antimycotic activity against Filobasidiella neoformans DBVPG 3428 by agar diffusion disk bioassay
Cryptococcus neoformans [6] = assay: Antimycotic activity against Filobasidiella neoformans DBVPG 6010 by agar diffusion disk bioassay
Cryptococcus neoformans [7] = assay: Antimycotic activity against Filobasidiella neoformans DBVPG 6225 by agar diffusion disk bioassay
Cryptococcus neoformans [8] = assay: Antimycotic activity against Filobasidiella neoformans DBVPG 6981 by agar diffusion disk bioassay
Cryptococcus neoformans [9] = assay: Antimycotic activity against Filobasidiella neoformans DBVPG 6982 by agar diffusion disk bioassay
Papiliotrema laurentii [10] = assay: Antimycotic activity against Cryptococcus laurentii DBVPG 3883 by agar diffusion disk bioassay
Clavispora lusitaniae = assay: Antimycotic activity against Clavispora lusitaniae DBVPG 6142 by agar diffusion disk bioassay
Saccharomyces cerevisiae [11] = assay: Antimycotic activity against Saccharomyces cerevisiae DBVPG 6173 by agar diffusion disk bioassay
Kluyveromyces marxianus = assay: Antimycotic activity against Kluyveromyces marxianus DBVPG 6141 by agar diffusion disk bioassay
Prototheca wickerhamii = assay: Antimycotic activity against Prototheca wickerhamii DBVPG 8879 by agar diffusion disk bioassay
Candida albicans [12] = assay: Antimycotic activity against Candida albicans DBVPG 6133 by agar diffusion disk bioassay
Nakaseomyces glabratus = assay: Antimycotic activity against Candida glabrata DBVPG 7212 by agar diffusion disk bioassay
[13] = tested on: Meyerozyma guilliermondii; assay: Antimycotic activity against Pichia guilliermondii DBVPG 6140 by agar diffusion disk bioassay
Candida tropicalis = assay: Antimycotic activity against Candida tropicalis DBVPG 3982 by agar diffusion disk bioassay
[Candida] zeylanoides = Antimycotic activity against Candida zeylanoides DBVPG 6163 by agar diffusion disk bioassay
Pichia kudriavzevii = assay: Antimycotic activity against Issatchenkia orientalis DBVPG 6782 by agar diffusion disk bioassay

SMILES | inhibition zone (IZ) (Papiliotrema laurentii [1]) [mm] | inhibition zone (IZ) (Papiliotrema laurentii [2]) [mm] | inhibition zone (IZ) (Candida albicans [3]) [mm] | inhibition zone (IZ) (Saccharomyces cerevisiae [4]) [mm] | inhibition zone (IZ) (Yarrowia lipolytica) [mm] | inhibition zone (IZ) (Cryptococcus neoformans [5]) [mm] | inhibition zone (IZ) (Cryptococcus neoformans [6]) [mm] | inhibition zone (IZ) (Cryptococcus neoformans [7]) [mm] | inhibition zone (IZ) (Cryptococcus neoformans [8]) [mm] | inhibition zone (IZ) (Papiliotrema laurentii [10]) [mm] | inhibition zone (IZ) (Clavispora lusitaniae) [mm] | inhibition zone (IZ) (Saccharomyces cerevisiae [11]) [mm] | inhibition zone (IZ) (Prototheca wickerhamii) [mm] | inhibition zone (IZ) (Candida albicans [12]) [mm] | further results
COc1ccc(C2CSc3ccc(O)cc3O2)cc1 (stereo not given) | 26.4 | 16.8 | 14.1 | 20.6 | 15.6 | 14.6 | 18.1 | 14.9 | 14.2 |  |  |  |  |  | inhibition zone (IZ) (Cryptococcus neoformans [9]): 12.9 mm
Oc1ccc(C2CSc3cc(O)ccc3O2)cc1 (stereo not given) | 16.4 | 16.9 |  |  | 14.3 |  | 15.5 | 11.2 |  | 13.8 | 12.9 | 15.2 |  |  | 
COc1cc(OC)c2c(c1)OC(c1ccc(O)c(O)c1)CS2 (stereo not given) | 19.3 | 2.6 | 12.1 | 14.9 |  |  |  |  |  | 13.1 | 13.9 | 14.6 | 14.5 |  | inhibition zone (IZ) (Kluyveromyces marxianus): 14.9 mm
COc1ccc(C2CSc3cc(O)ccc3O2)cc1 (stereo not given) | 22 |  |  |  |  |  | 13.6 |  |  |  |  |  |  |  | 
Oc1ccc(C2CSc3ccc(O)cc3O2)cc1 (stereo not given) | 28.5 | 17.8 | 18.3 | 19.2 | 16.5 | 17.4 | 15.5 | 17 | 15.6 | 22.6 | 12.4 | 15.6 | 17.8 | 16.2 | inhibition zone (IZ) (Nakaseomyces glabratus): 13.1 mm; inhibition zone (IZ) [13]: 17.2 mm; inhibition zone (IZ) (Candida tropicalis): 15.5 mm; inhibition zone (IZ) ([Candida] zeylanoides): 16.4 mm; inhibition zone (IZ) (Pichia kudriavzevii): 14 mm
COc1ccc2c(c1)OC(c1ccc(O)cc1)CS2 (stereo not given) | 30.2 | 20.6 | 16.5 | 18.3 | 15.8 | 20 | 35.1 | 18.4 | 25.1 | 18.2 | 15.3 | 24.1 | 20.7 | 17.5 | inhibition zone (IZ) (Candida tropicalis): 20.2 mm; inhibition zone (IZ) ([Candida] zeylanoides): 19.4 mm; inhibition zone (IZ) (Pichia kudriavzevii): 17.6 mm
COc1ccc(C2CSc3c(O)cc(O)cc3O2)cc1 (stereo not given) | 17.5 | 13.3 |  | 14.7 |  |  |  |  |  |  |  | 15.1 |  | 12.4 | 
